Source: patent US20080293818A1, “Regulator of Physiological Function of Ghrelin and Use Thereof” (priority 2004, published 2008)
Marks after values point to notes of the source that are not given here.

How the values were obtained:
[1] = system: plasma ghrelin peptides; assay: Molecular forms of circulating (plasma) ghrelin after glyceryl triheptanoate ingestion; format: in vivo, mouse; conditions: fed 4 days, HPLC, C-RIA
Procedure: Plasma samples were prepared as previously described [D2]. Whole blood samples were immediately transferred to chilled polypropylene tubes containing EDTA-2 Na (1 mg/ml) and aprotinin (1,000 kallikrein inactivator units/ml) and centrifuged at 4° C. Immediately after separation of the plasma, hydrogen chloride was added to the sample at final concentration of 0.1 N and then diluted with an equal volume of physiological saline. The sample was loaded onto a Sep-Pak C18 cartridge (Waters, Milford, Mass.) pre-equilibrated with 0.1% trifluoroacetic acid (TFA) and 0.9% NaCl. The cartridge was washed with 0.9% NaCl and 5% acetonitrile (CH3CN)/0.1% TFA, and then eluted with 60% CH3CN/0.1% TFA. The eluate was then lyophilized and residual materials were redissolved in 1 M acetic acid (AcOH) and adsorbed onto a SP-Sephadex C-25 column (H^+-form, Pharmacia, Uppsala, Sweden) pre-equilibrated in 1 M AcOH. Successive elution with 1 M AcOH, 2 M pyridine, and 2 M pyridine-AcOH (pH 5.0) provided three fractions: SP-I, SP-II and SP-III. […] Ghrelin peptide content in each fraction was measured by ghrelin C-RIA as described above.
Plasma samples collected from control mice fed standard chow (A) and glyceryl triheptanoate-treated mice (B) were fractionated by HPLC and measured for ghrelin immunoreactivity by C-RIA. […]

[2] = system: n-heptanoyl ghrelin in the stomach; assay: Molecular forms of stomach ghrelin after glyceryl triheptanoate ingestion (HPLC, C-RIA and N-RIA); format: in vivo, mouse
Procedure: (§1) Male C57BL/6J mice weighing 20-25 g (10-12 week old) were maintained under controlled temperature (21-23° C.) and light conditions (light on 0700-1900) with ad libitum access to food and water. Medium-chain fatty acids (MCFAs), i.e., n-hexanoic, n-octanoic, and n-lauric acids (Sigma-Aldrich Japan Co., Ltd., Tokyo), were dissolved in water at 5 mg/ml. n-Palmitic acid, a common long-chain fatty acid (LCFA) (Sigma-Aldrich Japan Co., Ltd., Tokyo), was mixed into standard laboratory chow (CLEA Rodent Diet CE-2, CLEA Japan, Osaka) at a concentration of 1% (w/w), to equilibrate the total intake amount of this lipid to the other medium-chain fatty acids contained in the food. Medium- and long-chain triglycerides (MCTs and LCTs), i.e., glyceryl trihexanoate, trioctanoate, tridecanoate and tripalmitates (Wako Pure Chemical, Osaka, Japan), were mixed with standard laboratory chow at a concentration of 5% (w/w). Whole stomach tissues from treated mice were collected at the indicated times (0-14 days) after ingesting the free fatty acid- or triacylglyceride-containing food. Fresh tissue samples from these mice were diced and boiled for 5 minutes in a 10-fold volume of water. The tissue-containing solution was then adjusted to 1M acetic acid after cooling and then homogenized with a Polytron mixer. The supernatant, obtained after centrifugation at 15,000 rpm for 15 minutes, was then lyophilized. The lyophilized material was dissolved in RIA buffer and subjected to ghrelin C- and N-RIA. To elucidate the forms of ghrelin peptides modified by different acyl groups, extracted stomach peptides were collected using a Sep-Pak Plus C18 cartridge (Waters, Milford, Mass.) and subjected to C18 RP-HPLC (Symmetry 300, 3.9×150 mm, Waters) with a linear gradient from 10 to 60% CH3CN/0.1% TFA at a flow rate of 1.0 ml/minute for 40 minutes. Five hundred micro-litter fractions were collected. Ghrelin peptide content in each fraction was measured by ghrelin C- and N-RIA as described above. Degradation of ghrelin was not observed during the extraction.
Male C57BL/6J mice weighing 20-25 g (10-12 week old) were maintained under controlled temperature (21-23° C.) and light conditions (light on 0700-1900) with ad libitum access to food and water. Glyceryl triheptanoate (Fluka Chemie GmbH, Buchs, Switzerland) was mixed with standard laboratory chow at a concentration of 5% (w/w). Four days after mice were fed glyceryl triheptanoate-containing food, stomachs (total 1,000 mg) were recovered from mice (n=7). The total consumption of glyceryl triheptanoate-containing food was approximately 13.5 g/mouse, amounting to 675 mg total glyceryl triheptanoate ingested by each mouse. Stomachs were minced and boiled for 5 minutes in 5× volumes of water to inactivate intrinsic proteases. […]

[3] = system: acyl-modified and total ghrelin in the stomach; assay: Time course of acyl-modified ghrelin production after glyceryl trioctanoate ingestion; format: in vivo, mouse
Procedure: To examine time-dependent changes in the production of n-octanoyl ghrelin after the ingestion of a glyceryl trioctanoate, mice were fed with glyceryl trioctanoate-containing chow (5%, w/w) after a 12-hour fasting period. The concentrations of acyl-modified and total ghrelins in the stomach were measured at the indicated times.
A represents acyl-modified ghrelin content measured by ghrelin N-RIA. B represents total ghrelin content measured by ghrelin C-RIA. After 12-hour fasting, glyceryl trioctanoate (5% w/w)-containing chow was given to mice beginning at the time (0 hour) indicated by the arrow. Stomach samples were isolated from control mice fed standard laboratory chow (closed circles) and mice fed glyceryl trioctanoate (open circles) at the indicated times. Each point represents mean ±S.D. (n=8). Asterisks indicate statistical significance. *, p<0.05; **, p<0.01 and ***, p<0.001 vs. control.

[4] = system: acyl-modified and total ghrelin in the stomach; assay: Stomach ghrelin content after medium- to long-chain triacylglycerol ingestion (N-RIA / C-RIA); format: in vivo, mouse; conditions: mice, 5% (w/w) in chow, two weeks, N-RIA
Procedure: (§2) RIAs specific for ghrelin were performed as previously described [D2]. Two polyclonal antibodies were raised in rabbits against the N-terminal (Gly^1-Lys^11 with O-n-octanoylation at Ser^3) and C-terminal (Gln^13-Arg^28) fragments of rat ghrelin. RIA incubation mixtures were composed of 100 μl of either standard ghrelin or an unknown sample, with 200 μl of antiserum diluted in RIA buffer (50 mM sodium phosphate buffer (pH 7.4), 0.5% BSA, 0.5% Triton-X100, 80 mM sodium chloride (NaCl), 25 mM disodium ethylenediamine-tetraacetate (EDTA 2-Na) and 0.05% sodium azide (NaN3)) containing 0.5% normal rabbit serum. Anti-rat ghrelin [D1-D11] and anti-rat ghrelin [D13-D28] antisera were used at final dilutions of 1/3,000,000 and 1/20,000, respectively. After a 12-hour incubation at 4° C., 100 μl of ^125I-labeled ligand (20,000 cpm) was added for an additional 36-hour incubation. Then, 100 μl of anti-rabbit goat antibody was added. After incubation for 24 hours at 4° C., free and bound tracers were separated by centrifugation at 3,000 rpm for 30 min. Pellet radioactivity was quantified in a gamma counter (ARC-600, Aloka, Tokyo). All assays were performed in duplicate at 4° C.
as §1
Orally ingested triacylglycerols are intraluminally hydrolyzed and absorbed through the gastro-intestinal mucosa as free fatty acids or monoglycerides. Thus, ingested triacylglycerols may serve as a source of free fatty acids [D26]. To examine if ingested triacylglycerols are used for acyl-modification of ghrelin, mice were fed chow mixed with 5% (w/w) glyceryl trihexanoate (C6), trioctanoate (C8), tridecanoate (C10), and tripalmintate (C16). After two weeks, gastric peptides were extracted. Ghrelin concentration in the stomach of these mice and in that from mice fed standard laboratory chow (Control) (n=8) are shown. The content of acyl-modified and total ghrelins was measured by N- and C-RIA. […]

[5] = system: ghrelin mRNA; assay: Northern blot of stomach ghrelin mRNA after glyceryl trioctanoate ingestion; format: in vivo, mouse; conditions: after 4 days of ingestion
Text: Total RNAs were extracted from the stomachs of male C57BL/6J mice (12 week old) by acid guanidium thiocyanate-phenol chloroform extraction [D24] using TRIzol reagent (Invitrogen, Carlsbad Calif., USA). Two μg of total RNA was electrophoresed through a 1% agarose gel containing formaldehyde, and then transferred to a Zeta-Probe blotting membrane (Bio-Rad Laboratories, Hercules, Calif.). Membranes were hybridized with a ^32P-labeled rat ghrelin cDNA probe in hybridization buffer containing 50% formamide, 5×SSPE, 5×Denhardt's solution, 1% sodium dodecyl sulfate (SDS), and 100 μg/ml denatured salmon sperm. After an overnight hybridization at 37° C., membranes were washed and exposed to BioMax-MS film (Eastman Kodak, Rochester, N.Y.) for 12 hours at −80° C. Ghrelin mRNA levels were quantified using a Bioimaging analyzer BAS 2000 (Fujix, Tokyo, Japan).
To examine if the ingestion of MCTs affects the expression of ghrelin mRNA, mouse stomach RNA was quantitated by Northern blot analysis after 4 days of glyceryl trioctanoate ingestion.
Each lane contained 2 μg of total RNA. The lower panel indicates 28S and 18S ribosomal RNAs internal controls.

[6] = system: des-acyl and acyl-modified ghrelin peptides in the stomach; assay: Molecular forms of stomach ghrelin peptide after ingestion (HPLC fractionation, C-RIA); format: in vivo, mouse
Procedure: as §1
To clarify what molecular forms of ghrelin peptide are present after the ingestion of triacylglycerol (triacylglycerin), peptide extracts from stomachs of mouse fed chow containing glyceryl trihexanoate (C6:0-MCT), glyceryl trioctanoate (C8:0-MCT), glyceryl tridecanoate (C10:0-MCT), and standard laboratory chow (Control) were fractionated by HPLC, and measured for ghrelin immunoreactivity by C-RIA. […] Based on the observed retention times of synthetic acyl-modified ghrelin peptides, peaks a, d, h, and k corresponded to des-acyl ghrelin, peaks b, f, i, and 1 corresponded to n-octanoyl (C8:0) ghrelin, and peaks c, g, j, and m corresponded to n-decenoyl (10:1) ghrelin.
Male C57BL/6J mice were fed chow mixed with 5% (w/w) glyceryl trihexanoate (C6:0-MCT), glyceryl trioctanoate (C8:0-MCT), or glyceryl tri-decanoate (C10:0-MCT) for 14 days. The concentrations of des-acyl ghrelin, n-hexanoyl ghrelin (C6:0-ghrelin), n-octanoyl ghrelin (C8:0-ghrelin), n-decenoyl ghrelin (C10:1-ghrelin), and n-decanoyl ghrelin (C10:0-ghrelin) from stomach samples (from 0.2 mg wet weight) were measured by ghrelin C-RIA after HPLC fractionation.

[7] = system: anti-rat ghrelin [D1-D11] antiserum; assay: Cross-reactivity of ghrelin N-RIA; format: binding, rabbit; conditions: for cross-reactivity of N-RIA: relative to n-octanoyl ghrelin
Procedure: as §2
The cross-reactivity of N-RIA to n-decanoyl ghrelin and that to n-hexanoyl ghrelin are 20% and 0.3%, respectively. Anti-rat ghrelin [D13-D28] antiserum equally recognized both des-acyl and all acylated forms of ghrelin peptide. In the following sections, the RIA system using the antiserum against the N-terminal fragment of rat ghrelin [D1-D11] is termed N-RIA, while the RIA system using antiserum against the C-terminal fragment [D13-D28] is termed C-RIA.

[8] = stomach extract, HPLC fraction, 0.2 mg stomach tissue equivalent
[9] = mice, 5% (w/w) in chow, 14 days, from 0.2 mg wet weight, C-RIA after HPLC, mean ± S.D.

## CCCCCCC(=O)OCC(COC(=O)CCCCCC)OC(=O)CCCCCC [glyceryl triheptanoate]
[1]
  appearance of plasma peak f (retention time of n-heptanoyl ghrelin): observed only in samples from glyceryl triheptanoate-treated mice
[2]; mice, HPLC, C-RIA / N-RIA
  appearance of peak b / d (n-heptanoyl ghrelin) immunoreactivity in stomach extracts: observed only in mice fed glyceryl triheptanoate
[2]; [8]
  concentration of peak b (n-heptanoyl ghrelin) determined by C-RIA: 466.3 fmol/tube
  concentration of peak d (n-heptanoyl ghrelin) measured by N-RIA: 74.9 fmol/tube

## CCCCCCCC(=O)OCC(COC(=O)CCCCCCC)OC(=O)CCCCCCC [glyceryl trioctanoate]
[3]; 14 days after ingestion, N-RIA
  stomach concentration of acyl-modified ghrelin vs normal chow: remained significantly higher
[3]; mice, 5% w/w chow after 12-hour fasting, N-RIA
  onset of increase of acyl-modified ghrelin content in the stomach: increased three hours after the ingestion
[3]; mice, 5% w/w chow continuously supplied
  time to maximal levels of n-octanoyl ghrelin in the stomach after starting ingestion: 24 h
[3]; time course, C-RIA
  stomach content of total ghrelin: no significant changes
[4]
  production of acyl-modified ghrelin in stomach tissue: stimulated production
[5]
  expression level of gastric ghrelin mRNA: did not change
[6]; [9]
  C6:0-ghrelin (n-hexanoyl ghrelin) concentration in the stomach: 12.4 ± 4.9
  C8:0-ghrelin (n-octanoyl ghrelin) concentration in the stomach: 774.0 ± 89.1^c)
  C10:0-ghrelin (n-decanoyl ghrelin) concentration in the stomach: 8.1 ± 3.1
  Des-acyl ghrelin concentration in the stomach: 236.6 ± 21.1
[6]; mice, 5% (w/w) in chow, 14 days, from 0.2 mg wet weight, C-RIA after HPLC, mean ± S.D., fraction holds unidentified ghrelin molecules too
  C10:1-ghrelin (n-decenoyl ghrelin) concentration in the stomach: 51.5 ± 13.2^a)
[6]; mice, HPLC peak, C-RIA
  stomach ghrelin modified by the acyl group corresponding to the ingested lipid: stimulated the production of n-octanoyl ghrelin
[6]; stomach of treated mice
  molar ratio of n-octanoyl/total ghrelin: over 60%

## des-acyl ghrelin: ghrelin peptide in which the position-3 amino acid is not acylated (GSSFLSPEHQRVQQRKESKKPPAKLQPR; Ghrelin-28 non-acylated; UniProt Q9UBU3 24-51, looked up)
[7]
  recognition by anti-rat ghrelin [D1-D11] antiserum: did not recognize

## n-decanoyl ghrelin
[7]
  cross-reactivity of N-RIA: 20%

## n-hexanoyl ghrelin
[7]
  cross-reactivity of N-RIA: 0.3%
